Results on 72 compounds are retold here after PubChem BioAssay AID179 (DTP/NCI, 2004).

In this assay the test system is CEM cells HIV-1 protection, formazan growth assay. Kind of assay: NCI AIDS Antiviral Assay. Conditions: for IC50: measured here: growth of uninfected CEM cells. The procedure, abridged:
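Five concentrations of each compound were applied to infected and uninfected human CEM cells. Protection from HIV-1 was judged from growth measured with a soluble formazan assay.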

“And” between values parts separate entries of the source, which are not always exact repeats. Identical values can stand only once. The source made the active and inactive calls.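 How the source made its calls: active means compounds giving half or more protection of infected cells from virus-caused growth loss, again on retest; inactive means the rest.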 Where a SMILES comes first, the peptide text is derived from it.

With `COc1ccccc1NC(=O)CC(=O)NN`, the EC50 is more than 200 µM and the IC50 was more than 200 µM.

For the compound `O=c1ccc2cc(O)c(O)cc2o1`, the EC50 is more than 1410 µM and the IC50 turned out to be 93.3 µM. As for `Cc1cc(OC(=O)c2c(C)cc(OC(=O)c3c(C)cc(O)cc3O)cc2O)cc(O)c1C(=O)O`, the EC50 is more than 77.6 µM and the IC50 was more than 77.6 µM.

On to `CC(C)(C)CP(CCP(C)(C)=S)CC(C)(C)C`, for which the EC50 is more than 44.7 µM and the IC50 was more than 44.7 µM. For the compound `CC(C)=CCc1c(O)cc(O)c2c1OC(c1ccc(O)cc1)C(O)C2=O` (centres undefined), the EC50 was more than 363 µM and the IC50 was 17.8 µM. The corresponding values for `CCN(CC)C(=O)c1ccc(C)c(N=NN(C)C)c1` are more than 501 µM and 316 µM.

As for `CC1(C)OC2C(=O)OC(COCc3ccccc3)C2O1` (centres undefined), the EC50 is more than 36.3 µM and the concentration for half-maximal inhibition (IC50) was more than 36.3 µM.

For the compound `CCN(CC)CCOc1ccc(/C=C(\C#N)c2ccc(OCCN(CC)CC)cc2)cc1`, the EC50 is more than 53.7 µM; the IC50 was 3.72 µM and 6.92 µM. For `O=C(Cc1nc2sc3c(c2c(=O)[nH]1)CCCC3)Nc1ccccc1`, the result was inactive. For the compound `CC(=O)Nc1ccccc1S(=O)(=O)c1ccccc1`, the half-maximal effective concentration (EC50) is 302 µM and the IC50 turned out to be 324 µM. Consider `C=CCC[CH2][Sn]([c]1ccccc1)([c]1ccccc1)[c]1ccccc1`, for which the outcome was inactive. Turning to `CC[C@H](OCc1ccccc1)/C(C)=C/CC(C)/C=C(/C[C@]1(C)OC(=O)N2CCC[C@H]21)[Si](C)(C)C` (some centres undefined), the EC50 is more than 10.7 µM and the IC50 was more than 10.7 µM. As for `CNC(=S)N/N=C(C)\C(=N/NC(=S)NC)c1ccccc1`, the EC50 is more than 200 µM and the IC50 is 29.5 µM. The corresponding values for `NNC(=O)CC(=O)Nc1cccc(Cl)c1` are more than 200 µM and 120 µM. As for `O=S(=O)(CC(Cl)c1ccccc1)c1nc2ccccc2s1` (centres undefined), the EC50 is more than 200 µM and the IC50 came to 2.14 µM. The like results for `N#CC1=C(S)N(C2OC(CO)C(O)C(O)C2O)C(c2ccccc2)=CC1c1ccccc1` (centres undefined) were, in that order, more than 200 µM and 51.3 µM. Take `O=[N+]([O-])c1cc(-c2nc(=S)[nH][nH]2)ccc1O`: the EC50 was more than 1050 µM and the concentration for half-maximal inhibition (IC50) is 257 µM. The like results for `Nc1c(-c2nc3ccccc3[nH]2)sc(=S)n1-c1ccccc1` were, in that order, more than 11.5 µM and more than 11.5 µM. As for `COc1ccc(N=Nc2c(N)nn3cc4c(nc23)CCC4)cc1`, the outcome was inactive.

Regarding `O=C(Nc1c(Cl)cc([N+](=O)[O-])cc1Cl)C(=O)C1C(=O)NC(=S)NC1=O`, the EC50 is more than 89.1 µM and the concentration for half-maximal inhibition (IC50) was more than 89.1 µM. For `O=C(O)C1CCSS1` (centres undefined), the EC50 was more than 457 µM and the IC50 is 263 µM. The corresponding values for `O=C1CN2Cc3cc(N4CCOCC4)ccc3N=C2N1` are more than 257 µM and 40.7 µM. For `OCCCN(CCO)CCN(CCCO)CCCO`, the EC50 was more than 200 µM and the IC50 is more than 200 µM. With `CC(C)CC(NC(=O)CNC(=O)C(CC(C)C)NC(=O)C(Cc1c[nH]cn1)NC(=O)C(CC(N)=O)NC(=O)C(C)NC(=O)C1CCCN1C(=O)C(Cc1ccc(O)cc1)NC(=O)C1CCCN1C(=O)C(C)NC(=O)C(CCC(=O)O)NC(=O)C(CC(=O)O)NC(=O)C(Cc1ccccc1)NC(=O)C(CC(N)=O)NC(=O)C(C)N)C(=O)O` (centres undefined) (H-ANFDEAPYPANHLGL-OH; configuration not given here), the EC50 was more than 38 µM and the IC50 is more than 38 µM.

Consider `N#CCC(=O)N/N=C1/C(=O)N(c2cc(Cl)ccc2Cl)C(=O)C(=O)C1c1nc2ccccc2s1` (centres undefined), for which the result was inactive. `COc1ccc(OC(C(=O)O)c2ccccc2)c2c1CCCC2=O` (centres undefined): the outcome was inactive. On to `COC(=O)c1cc2ccc(OC(C)=O)c(OC(C)=O)c2cn1`, for which the EC50 was more than 166 µM and the IC50 was determined as 0.851 µM.

On to `O=C(c1ccccc1)c1nnn(Cc2ccccc2Cn2nnc(C(=O)c3ccccc3)c2C(=O)c2ccccc2)c1C(=O)c1ccccc1`, for which the EC50 was more than 7.94 µM and the IC50 is more than 7.94 µM. Regarding `COc1c(OC)c(O)c2c(=O)c(OC)c(-c3ccc4c(c3)OCO4)oc2c1O`, the EC50 is more than 200 µM and the IC50 stood at 74.1 µM. As to `CCOC(=O)C(C(=O)OCC)C(C(=O)OCC)C(=O)OCC`, the EC50 was more than 200 µM and the IC50 is more than 200 µM. As for `O=Nc1c(O)[nH]c(=O)[nH]c1=O`, the EC50 is more than 200 µM and the IC50 is more than 200 µM.

For the compound `O=C(CN1CCCC1)Nc1ccc2c(c1)C1Oc3ccccc3CC1CO2` (centres undefined), the outcome was inactive. For `CCC[CH2][Sn]1([CH2]CCC)[O]CC(Cc2ccccc2)[O]1` (centres undefined), the EC50 was more than 17 µM and the IC50 came out at 0.331 µM. The like results for `COC[C@@H](N=Cc1ccc(OC)cc1)C(C)C` were, in that order, more than 200 µM and more than 200 µM. The corresponding values for `O=[N+]([O-])c1ccc(/C=C/c2c[n+]([O-])nc3ccccc23)cc1` are more than 200 µM and more than 200 µM. The like results for `Cc1ccc2c(c1)-c1c(C#N)c(N)nc(-c3ccc(Cl)cc3)c1CCS2(=O)=O` were, in that order, more than 200 µM and 3.16 µM.

In the case of `[N-]=[N+]=NC1=C(C(=O)c2ccccc2)C(=O)c2cccc3cccc1c23`, the EC50 is more than 100 µM and the IC50 came to 49 µM. The like results for `CNC(=O)C1(C#N)C(c2ccccc2)C(C#N)(C(=O)NC)C1c1ccccc1` (centres undefined) were, in that order, more than 200 µM and 166 µM. The like results for `NC(CSS(=O)(=O)O)=NCCc1ccccc1` were, in that order, more than 200 µM and 110 µM.

`COc1ccc(CC(=O)NCCc2ccc(OC)c(OC)c2)cc1Br`: the EC50 is more than 316 µM and the IC50 is more than 316 µM. As for `COC(=O)C1=C(C(=O)OC)SC(=CC#CC=C2SC(C(=O)OC)=C(C(=O)OC)S2)S1`, the EC50 is more than 5.62 µM and the IC50 is more than 5.62 µM. For `O=C(O)c1cccc(/C=C/c2ccc(N=Nc3cc(S(=O)(=O)O)c4cccnc4c3O)cc2C(=O)O)c1`, the EC50 was 166 µM and the IC50 was more than 200 µM. `COc1ccc(C2=CC(=O)CCC2)cc1`: the EC50 is more than 178 µM and the IC50 was more than 178 µM. With `Cc1cc(C)[s+]s1`, the EC50 was more than 200 µM; the IC50 is 112 µM and 182 µM. Consider `NC(CSS(=O)(=O)CC(N)C(=O)O)C(=O)O` (centres undefined), for which the result was inactive and the IC50 was found to be 63.1 µM. In the case of `CSc1c(C#N)c(=C(C#N)C#N)nc(C)/c1=C(\C)O`, the EC50 is more than 100 µM and the IC50 is more than 100 µM. Turning to `O=c1c2ccccc2sc2cccc(NCCCN3CCN(CCCNc4cccc5sc6ccccc6c(=O)c45)CC3)c12`, the EC50 was more than 100 µM and the IC50 was more than 100 µM. Turning to `CSC1=C(C#N)C(=S)N=C(N)C1C(=O)Nc1ccc(C)cc1` (centres undefined), the EC50 is more than 200 µM and the IC50 was more than 100 µM. Turning to `O=S(=O)(c1ccccc1)C1(C2(S(=O)(=O)c3ccccc3)CCN=N2)CCN=N1` (centres undefined), the result was inactive. As to `C1CCN(CCCSSCCCN2CCCCC2)CC1`, the EC50 was more than 200 µM and the IC50 stood at 91.2 µM. As for `COC(=O)CCC1=NOC(CC2CC(CCC(=O)OC)=NO2)C1` (centres undefined), the result was inactive. For `O=C(O)c1ccccc1/C=N\NC1=NCCCCN1`, the EC50 is more than 200 µM and the IC50 was more than 200 µM. Take `O=P(O)(Cc1ccccc1)c1ccccc1-c1ccccc1`: the EC50 is more than 200 µM and the concentration for half-maximal inhibition (IC50) came to 49 µM. With `CCOC(=O)c1c(C(F)(F)F)c2cc(C(=O)C(F)(F)F)c3ccccc3c2n1C`, the EC50 was more than 42.7 µM and the IC50 is more than 42.7 µM.

Regarding `CNS(=O)(=O)NNS(=O)(=O)c1ccccc1`, the EC50 was more than 933 µM and the IC50 was more than 200 µM. Consider `O=C(/C(=C/c1cccc([N+](=O)[O-])c1)c1ccccc1)c1ccccc1`, for which the EC50 is more than 6.03 µM and the IC50 is 4.07 µM. With `O=C1CCC(C(Sc2ccccc2)(Sc2ccccc2)Sc2ccccc2)C1` (centres undefined), the EC50 is more than 200 µM and the IC50 worked out at 38.9 µM. Turning to `COc1cc2c(cc1OC)CN1CCc3ccccc3CC1C2` (centres undefined), the EC50 was more than 200 µM and the half-inhibitory concentration (IC50) came out at 14.8 µM. Consider `O=C(OC1C=C=CS(=O)(=O)CC#C/C=C\1)c1cnc2ccccc2n1` (centres undefined), for which the EC50 was more than 200 µM and the concentration for half-maximal inhibition (IC50) is 102 µM.

With `COC[C@H]1C(=O)NCC(=O)N2N=CCC[C@H]2C(=O)N(O)[C@H](C)C(=O)O[C@@H](C(C)C)[C@H](NC(=O)[C@@](C)(O)[C@]2(O)CC[C@@H](CC(C)C)[C@H](C)O2)C(=O)N2NCCC[C@@H]2C(=O)N1O`, the EC50 was more than 0.151 µM and the IC50 came to 0.0417 µM.

Take `CC1=C(C#N)C(N)=C2C(C)=C(C#N)C(N)=C12`: the result was inactive.

As to `Cn1cc(C(=O)C2CCCCC2)ccc1=O`, the EC50 was more than 1150 µM and the IC50 came out at 372 µM. Consider `O=S(=O)(O)c1cc(Cl)cc(Cc2cc(Cl)cc(S(=O)(=O)O)c2O)c1O`, for which the outcome was active. As for `O=S(=O)(O)c1ccc(N=Nc2ccc(N=Nc3cccc4ccccc34)c(S(=O)(=O)O)c2)cc1`, the EC50 was more than 50.1 µM and the IC50 was more than 50.1 µM. On to `CSc1ccc(OCC2OC2O)cc1` (centres undefined), for which the EC50 was more than 24.5 µM and the 50% inhibitory concentration (IC50) is more than 24.5 µM. `O=C1/C(=C\c2cccc(Oc3ccccc3)c2)SC(c2ccccc2)N1c1ccc(Cl)cc1` (centres undefined): the EC50 was more than 20 µM and the IC50 turned out to be 1.29 µM. The like results for `Nc1nncs1` were, in that order, more than 1780 µM and 871 µM.

Take `CC1=CC(O)C(C(O)(C(F)(F)F)C(F)(F)F)C(C)(C)C1` (centres undefined): the EC50 is more than 200 µM and the IC50 came to 178 µM. Regarding `CC(=O)N(CCCCNC(=O)C(F)(F)F)CCCNC(=O)C(F)(F)F`, the EC50 is more than 200 µM and the IC50 was more than 200 µM.

`CCOC(=O)CSc1nc(N)c2c(-c3ccccc3)c3c(nc2n1)CCCC3`: the EC50 was more than 200 µM and the IC50 was more than 200 µM.

For `O=C1OC(O)C(Oc2c(Cl)cccc2Cl)=C1Cl` (centres undefined), the EC50 was more than 40.7 µM and the IC50 amounted to 19.1 µM.

Regarding `CN(C)c1ccc(/C=C(\NC(=O)c2ccccc2)C2=NC(CC(=O)O)C(=O)O2)cc1` (centres undefined), the EC50 was more than 50.1 µM and the IC50 was more than 50.1 µM.
